This is an account of results in paper PMC2360155, “Novel retinoic acid metabolism blocking agents have potent inhibitory activities on human breast cancer cells and tumour growth” (British Journal of Cancer, 2007).

For this assay, the system named is MCF-7Ca tumour xenografts. The assay can be described thus: In vivo antitumour study, MCF-7Ca tumour xenografts. Details: species or system ovariectomised female athymic nude mice. As to conditions: for Prevention of formation of MCF-7Ca tumours (in words): 20 mg kg^−1 day^−1 from the day after inoculation. The procedure: The third in vivo antitumour experiment was conducted with MCF-7Ca tumours. MCF-7Ca were provided by Dr S Chen (City of Hope, Duarte, CA, USA). The tumour xenografts were grown in mice as described previously ([Yue et al, 1994]). Subconfluent cells were scraped into Delbecco's phosphate-buffered saline, collected by centrifugation and resuspended in Matrigel (10 mg ml^−1) at 2.5 × 10^7 cells ml^−1. Each mouse received s.c. inoculations in two sites per flank with 100 μl of cell suspension. Mice in the tumour formation prevention group (n=5) were than injected daily with androstenedione (100 μg day^−1) plus VN/14-1 (20 mg kg^−1 day^−1) in the vehicle for the duration of the experiment. The rest of the mice were injected daily with 100 μg day^−1 of androstenedione. Measurements and treatments began when the tumours reached approximately 300 mm^3, about 6 weeks after cell inoculation. Mice were assigned to groups for treatment so that there was no statistically significant difference in tumour volumes among the groups at the beginning of the treatment. Tumours were measured and volumes calculated as described above. Mice were than injected s.c. daily with the indicated agents: 100 μg per mouse per day (5 × weekly) plus 10 μg per mouse per day (5 × weekly) of letrozole or 200 μg per mouse per day (5 × weekly) of anastrozole and 20 mg kg^−1 day^−1 (5 × weekly) of VN/14-1. The doses of letrozole, anastrozole, androstendione and VN/14-1 used are as determined previously ([Long et al, 2002], [2004]; [Patel et al, 2004]). The mice were treated for the indicated times, after which they were killed by decapitation and blood collected. Tumours and uteri were excised, cleaned, weighed and stored at −80°C for additional analyses.
Figure 10 Effects of VN/14-1 on the formation of MCF-7Ca tumours and effects of VN/14-1, anastrozole and letrozole on the growth of MCF-7Ca xenografts in ovariectomised female athymic nude mice. Mice were inoculated with MCF-7Ca cells as described in Materials and Methods. Beginning on the following day, androstendione (100 μg per mouse per day) was supplemented by s.c. injection for the duration of the experiment. For the tumour formation prevention group (n=5), VN/14-1 (20 mg kg^−1 day^−1) treatment began from the day after inoculation. For the other groups (VN/14-1, anastrazole and letrozole), treatment began after the tumour had reached approximately 300 mm^3 following procedures described in Materials and Methods.

Entries after “also recorded” stand apart in the source; their conditions may differ.

With `CC1=C(/C=C/C(C)=C/C=C/C(C)=C/C(=O)O)C(C)(C)CCC1n1ccnc1` (stereo not shown) [VN/14-1], the “Prevention of formation of MCF-7Ca tumours (in words)” value is “very effective in preventing the formation of MCF-7Ca tumours”. Moreover, the “Prevention of formation of MCF-7Ca tumours (in words)” value (listed as VN14-1) was “efficacious in preventing the formation of MCF-7Ca tumours”. Besides, the “Inhibition of growth of established MCF-7Ca tumours (in words)” value (20 mg kg^−1 day^−1 s.c. (5 × weekly), androstenedione supplemented) is “as effective as the clinically used aromatase inhibitors, anastrozole and letrozole; also recorded: as effective as either anastrozole or letrozole”. The Uterine wet weight entry (VN/14-1 treatment, data not shown) is given as “significant reduction in uterine wet weight”.
